What was measured:
Assay type in all cases: cell-based, human
DNMT1 = assay: DNMT enzyme activity in isolated nuclei (DNA methyltransferase assay kit); conditions: A2780 nuclear extracts, 5 μM, 24 hr
Experimental: (§1) DNMT1 protein expression was measured by Western Blotting after exposure to RX-3117 for 24 or 48 hr. DNMT1 RNA expression was measured by real-time PCR after 24 and 48 hr exposure to RX-3117. DNMT enzyme activity was measured in isolated nuclei after exposure 1 μM RX-3117 or 5 μM aza-CdR using a DNA methyltransferase assay kit provided by EpiGentek using the ability of a CpG dinding domain to bind to methylated DNA. In A549 cells the effect of 5 μM RX-3117 on overall methylation was measured with a specific antibody against 5-methyl-cytosine. Bands on Western blots were visualized using appropriate InfraRedDye using an Odyssey InfraRed imager.

[1] = system: overall methylation of DNA; assay: Overall methylation of DNA with antibody against 5-methyl-cytosine; conditions: A549, 5 μM, 48 hr exposure
Experimental: as §1

PCFT = PCFT mediated transport of radiolabeled MTX; conditions: CEM cells, 24 hr; RX-3117 29.6 μM; DAC positive control
Excerpt: In this study, the following cell lines were used: (1) CCRF-CEM cells and its MTX resistant variant CEM-MTX, characterized by a deficiency of the reduced folate carrier (RFC) (Jansen G., et al., JBC 273 (1998) 30189-30198). The PCFT gene in CEM cells is highly methylated. (Gonen N., et al., BBRC 376 (2008) 787-92.); (2) CEM cells cultured in RPMI medium with 10% fetal bovine serum (FBS); and (3) A549 and SW1573 non-small cell lung cancer (NSCLC) and A2780 ovarian cancer cell lines cultured in DMEM medium with 10% FBS.
MTX transport was measured using radiolabeled MTX in CEM wild type and CEM-MTX cell lines. CEM cells have a high RFC activity. CEM-MTX are completely deficient in RFC-mediated transport. CEM cells have a highly methylated PCFT transporter and a very low PCFT mediated transport (Gonen N., et al., BBRC 376 (2008) 787-92). MTX transport at pH 7.4 is predominantly RFC mediated and less than 2% by PCFT. Folic acid was used to inhibit PCFT mediated transport. […] CEM and CEM-MTX cells were exposed to 29.6 μM RX-3117 and to 0, 19 μM aza-CdR as a positive control. MTX transport was measured after 24 hr to the drugs in a 3 minutes uptake assay using 2 μM [3′,5,′7-3H]-MTX.

Nc1ncn([C@H]2C[C@H](O)[C@@H](CO)O2)c(=O)n1 [DAC, 5-aza-2′-deoxycytidine, reference compound]
inhibition of DNMT1 activity (DNMT1): 31%
decrease of overall methylation of DNA [1]: 9%
increase of PCFT mediated transport of MTX (PCFT): 4 fold

From patent publication US10278971B2, “Fluorocyclopentenylcytosine methods of use” (Rexahn Pharmaceuticals, Inc., priority 2015, dated 2019)
